Measured values from patent US9345681B2, “Anti-obesity agent comprising high-purity EPA” (MOCHIDA PHARMACEUTICAL CO., LTD., priority 2011, dated 2016).

Columns and labels:
[1] = tested on: obesity model hamster fed on a high fat diet; assay: Effect of suppressing the body weight gain in the obesity model hamster fed on a high fat diet; format: in vivo, Syrian hamsters; settings: for body weight gain rate on the 21st day: mixed diet of high fat diet + 2% test substance, compared with high-fat diet group (FIG. 1)
Method: 6 week old male Syrian hamsters (Japan SLC, Inc.) were bred at a temperature of 23±3° C. and a light-dark cycle of 12 hours on a free feeding of standard diet for 11 days, and the hamsters were divided into 4 groups, namely, standard forage group (Standard) (n=4), high-fat diet group (n=8), EPA group (HF+EPA-E) (n=8), and DHA group (HF+DHA-E) (n=7). The standard diet used was CLEA Rodent Diet CE-2 (4.8% fat) manufactured by CLEA Japan, Inc. and the high fat diet (HF) used was Hypercholesterolemic Hamster Diet (9% sugar and fat 21% fat) manufactured by Wilson. The effects of the EPA and DHA on the body weight gain were confirmed by using hamsters fed on a high fat diet (HF). During the feeding on the high fat diet, a mixed diet of high fat diet+2% EPA-E (comprising 98.24% EPA-E manufactured by Nippon Suisan Kaisha, Ltd.) was given to the EPA group, and a mixed diet of high fat diet+2% DHA-E (comprising 97.4% DHA-E manufactured by Equateq Ltd.) was given to the DHA group (with the diet changed once a day in the morning). The control group was given a high fat diet or a standard diet (comprising 4.8% fat) (with the diet changed once a day in the morning). The body weight was measured from the day of the start of the administration. The body weight gain rate on the 21st day was higher in the group fed on the high-fat diet group compared to the standard forage group, and the group fed on the high-fat diet was in the condition of obesity. […] This confirms that the action of suppressing the body weight gain (or reducing the body weight) of the EPA-E is realized by the action of suppressing (or reducing) the amount of fat, namely, the anti-obesity action.

[2] = tested on: plasma LDL-C; assay: Effects on LDL-C level in high fat diet hamster; format: in vivo, Syrian hamsters; settings: high fat diet + 2% test substance, 21st day of the administration (FIG. 3)
Method: (§1) 6 week old male Syrian hamsters (Japan SLC, Inc.) were bred at a temperature of 23±3° C. and a light-dark cycle of 12 hours on a free feeding of standard diet for 11 days, and the hamsters were divided into 4 groups, namely, standard forage group (Standard) (n=4), high-fat diet group (n=8), EPA group (HF+EPA-E) (n=8), and DHA group (HF+DHA-E) (n=7). The standard diet used was CLEA Rodent Diet CE-2 (4.8% fat) manufactured by CLEA Japan, Inc. and the high fat diet (HF) used was Hypercholesterolemic Hamster Diet (9% sugar and fat 21% fat) manufactured by Wilson. The action of the EPA and the DHA on the LDL-C level was confirmed by using the hamsters fed on a high fat diet. Along with the experiment of the action of suppressing the body weight gain in Experimental Example 1, blood was collected at day 7, 14, and 21 after the starting of the administration, and plasma was separated by centrifugation. Plasma LDL-C concentration was measured by using a commercially available test reagent (Wako L-Type LDL-C manufactured by Wako Pure Chemical Industries).

[3] = tested on: CETP; assay: Effects on CETP activity value in high fat diet hamster; format: in vivo, Syrian hamsters; settings: high fat diet + 2% test substance, 21st day of the administration (FIG. 4)
Method: as §1, with “CETP activity value” for “LDL-C level”, “CETP activity value” for “LDL-C concentration”, “a” for “a commercially available”, “(CETP activity assay kit” for “(Wako L-Type LDL-C”, “Bio Vision).” for “Wako Pure Chemical Industries).”

[4] = tested on: model mouse with obesity associated with enhanced hepatic lipogenesis or fatty liver; settings: model mouse continuously fed on a high-fat and high-sugar diet; cited from earlier work
[5] = tested on: model mouse with obesity not associated with the enhancement of hepatic lipogenesis or fatty liver; settings: model mouse continuously fed on a high-fat diet; cited from earlier work

Compound: CC/C=C\C/C=C\C/C=C\C/C=C\C/C=C\C/C=C\CCC(=O)OCC [DHA-E, ethyl docosahexaenoate]
- body weight gain rate on the 21st day [1]: approximately equal to that of the high-fat diet group
- plasma LDL-C level [2]: An action of increasing the plasma LDL-C level was found
- plasma CETP activity value [3]: increase in the CETP activity was confirmed

Compound: CC/C=C\C/C=C\C/C=C\C/C=C\C/C=C\CCCC(=O)OCC [EPA-E, ethyl icosapentate]
- amount of fat in the epididymis on the 21st day ([1]; high fat diet + 2% test substance, 21st day (FIG. 2)): increase in the amount of fat was significantly suppressed
- body weight gain rate on the 21st day [1]: lower than the control high-fat diet group
- plasma LDL-C level [2]: an action of suppressing the increase of the plasma LDL-C level was found
- plasma CETP activity value [3]: the action of suppressing the increase of the CETP activity was confirmed
- suppression of body weight gain [4]: effective in suppressing the body weight gain
- suppression of body weight gain [5]: ineffective
